Measured values from patent publication US20220160664A1, “TAZ ACTIVATORS AND WNT AGONISTS FOR TREATING EAR DISORDERS” (Frequency Therapeutics, Inc., priority 2019, published 2022).

Columns and labels:
[1] = cited from earlier work; for Human In Vivo Conc: Table 8
[2] = tested on: Lgr5 GFP(+) cochlear progenitor cells; assay: Lgr5+ Assay / Stem Cell Proliferation Assay: proliferation and enrichment of Lgr5 GFP(+) cochlear progenitor cells; format: cell-based
Description: FIG. 1A is a graph depicting that the TAZ activator IBS008738 enhances Lgr5 GFP(+) progenitor cell proliferation when combined with CHIR in a background of growth factors. The y-axis depicts Lgr5 GFP(+) cell count and the x-axis depicts control conditions (background growth factors plus CHIR (EFI-C) or CHIR and VPA (EFI-CV)) versus CHIR+IBS008738 (EFI-C-IBS).
The y-axis depicts Lgr5 GFP(+) cell area and the x-axis depicts concentration of FHZ-000706.
FIG. 4A is a graph depicting that the TAZ activator FHZ-000706 enhances Lgr5 GFP(+) progenitor cell proliferation when combined with CHIR in a background of growth factors compared to CHIR alone.
The TAZ activator and the Wnt agonist (optionally in combination with an epigenetic agent) is capable of (i) forming a proliferation assay final cell population from a proliferation assay initial cell population over a proliferation assay time period in a stem cell proliferation assay, and/or (ii) forming a differentiation assay final cell population from a differentiation assay initial cell population over a differentiation assay time period in a Stem Cell differentiation assay wherein: (a) the proliferation assay initial cell population has (i) a Proliferation assay initial number of total cells, (ii) a proliferation assay initial number of Lgr5+ cells, (iii) a proliferation assay initial number of hair cells, (iv) a proliferation assay initial Lgr5+ cell fraction that equals the ratio of the proliferation assay initial number of Lgr5+ cells to the proliferation assay initial number of total cells, and (v) a proliferation assay initial hair cell fraction that equals the ratio of the proliferation assay initial number of hair cells to the proliferation assay initial number of total cells; (b) the proliferation assay final cell population has (i) a proliferation assay final number of total cells, (ii) a proliferation assay final number of Lgr5+ cells, (iii) a proliferation assay final number of hair cells, (iv) a proliferation assay final Lgr5+ cell fraction that equals the ratio of the proliferation assay final number of Lgr5+ cells to the proliferation assay final number of total cells and (v) a proliferation assay final hair cell fraction that equals the ratio of the proliferation assay final number of hair cells to the proliferation assay final number of total cells; (c) the differentiation assay initial cell population has (i) a differentiation assay initial number of total cells, (ii) a differentiation assay initial number of Lgr5+ cells, (iii) a differentiation assay initial number of hair cells, (iv) a differentiation assay initial Lgr5+ cell fraction that equals the ratio of the differentiation assay initial number of Lgr5+ cells to the differentiation assay initial number of total cells, and (v) a differentiation assay initial hair cell fraction that equals the ratio of the differentiation assay initial number of hair cells to the differentiation assay initial number of total cells; (d) the differentiation assay final cell population has (i) a differentiation assay final number of total cells, (ii) a differentiation assay final number of Lgr5+ cells, (iii) a differentiation assay final number of hair cells, (iv) a differentiation assay final Lgr5+ cell fraction that equals the ratio of the differentiation assay final number of Lgr5+ cells to the differentiation assay final number of total cells, and (v) a differentiation assay final hair cell fraction that equals the ratio of the differentiation assay final number of hair cells to the differentiation assay final number of total cells; (e) the proliferation assay final number of Lgr5+ cells exceeds the proliferation assay initial number of Lgr5+ cells by a factor of at least 10; and/or (f) the differentiation assay final number of hair cells is a non-zero number.

[3] = tested on: cochlear progenitor cells (Lgr5+); assay: Lgr5 cell expansion: quantification of cell proliferation, expansion and enrichment (flow cytometry / Celigo imaging); format: cell-based, mice; settings: for enrichment of Lgr5+ progenitor cells / proliferation of Lgr5+ progenitor cells: TAZ activator 10 μM combined with Wnt agonist CHIR99021 (4 μM)
Experimental: Neonatal Lgr5-EGFP-IRES-Cre-ER mice (The Jackson Laboratory, strain 8875) were used to analyze the effects of small molecules on cochlear stem cell expansion (see Barker et al., Nature 449, 1003-7 (2007). This strain allowed for visualization and quantification of EGFP cells.
All animal studies were conducted under an approved institutional protocol per National Institutes of Health guidelines. Using neonatal animals, cochleae were dissected and the organ of Corti (sensory epithelium) was separated from the stria vascularis (ion transport epithelium) and the modiolus (nerve tissue). Epithelia were then collected and treated with TrypLE for 15-20 minutes to obtain single cells. The cells were then filtered ([…]) and suspended in a Matrigel (Corning) dome for 3D culture seeded at 0.5 cochlea per well.
Expansion of Lgr5 Cells: Cells were cultured in a 3D system and bathed in a serum free 1:1 mixture of DMEM and F12, supplemented with Glutamax (GIBCO), N2, B27 (Invitrogen), EGF (50 ng/mL; Chemicon), bFGF (50 ng/mL; Chemicon), IGF-1 (50 ng/mL; Chemicon), and small molecules for seven days. Media was changed every other day. Treatments were run in triplicate or quadruplicate.
Quantification of Cell Proliferation: Lgr5 cells were quantified after 7-10 days. Cell colonies were dissociated into single cells using TrypLE. The cells were then stained with propidium iodide (PI) and analyzed using a flow cytometer to count Lgr5-EGFP cells. The percentage of viable Lgr5 cells was plotted against the concentration in GraphPad Prism.
Organ of Corti are dissected from Lgr5 GFP(+) mice and dissociated as single cells as described above. Background media contains the same supplements and growth factors at the same concentrations as described above. Assays for image quantification are run in 96 well black plates with clear bottom with cells embedded in 50% Matrigel at cell density of 500 k cells/mL with 50 uL applied to each well. Cells are cultured for 7 days, with media change every 3-4 days. After 7 days of exposure to experimental conditions (e.g. small molecules), media is then removed from culture and replaced with media containing Hoescht at a 1:2000 dilution for a final concentration of 5 ug/mL (200 uL/well). The plate is then placed in a cell culture incubator at 37C for 1 hr. The media containing Hoescht is then removed and 200 uL/well of Cell Recovery Solution is added. The plate is then incubated on a plastic-wrapped (e.g. Saran wrap) CoolRack™ on ice for 80 minutes. Next, the plate is centrifuged for 5 minutes at 2300 RPMs (Beckman Coulter Allegra 6R centrifuge; GH 3.8A plate rotor; ambient temperature). Cells are then imaged on Celigo using 3 channels for brightfield, blue (Hoescht), and green (Lgr5 GFP). Proliferated cell colonies are captured as summed objects in the blue channel and the green channel. The green Lgr5 GFP(+) cell colonies are quantified for total GFP(+) cell area, while the blue hoescht stained colonies are quantified as total cell area. The % GFP(+) Cell Area is calculated using the total GFP(+) cell area divided by the total cell area multiplied by 100. All results are compiled and utilized to determine the effects of experimental conditions (e.g. small molecules) on the expansion and enrichment of the Lgr5 cell population.

DOT1L = DOT1L (Homo sapiens, UniProt Q8TEK3); settings: DOT1L inhibitors, Table 8; cited from earlier work
HDAC = settings: cited from earlier work
TAZ = TAZ (Homo sapiens, UniProt Q9GZV5); settings: Table 1, TAZ activators, literature cell concentration; cited from earlier work
GSK-3 alpha = GSK-3 alpha (Homo sapiens, UniProt P49840); settings: Table 2; kind of potency not given; cited from earlier work
KDM1b = target: T1, KDM1b (Homo sapiens, UniProt Q8NB78); settings: Table 9; read-out: Select KDM1b; cited from earlier work
T1 sequence (Q8NB78 1-822): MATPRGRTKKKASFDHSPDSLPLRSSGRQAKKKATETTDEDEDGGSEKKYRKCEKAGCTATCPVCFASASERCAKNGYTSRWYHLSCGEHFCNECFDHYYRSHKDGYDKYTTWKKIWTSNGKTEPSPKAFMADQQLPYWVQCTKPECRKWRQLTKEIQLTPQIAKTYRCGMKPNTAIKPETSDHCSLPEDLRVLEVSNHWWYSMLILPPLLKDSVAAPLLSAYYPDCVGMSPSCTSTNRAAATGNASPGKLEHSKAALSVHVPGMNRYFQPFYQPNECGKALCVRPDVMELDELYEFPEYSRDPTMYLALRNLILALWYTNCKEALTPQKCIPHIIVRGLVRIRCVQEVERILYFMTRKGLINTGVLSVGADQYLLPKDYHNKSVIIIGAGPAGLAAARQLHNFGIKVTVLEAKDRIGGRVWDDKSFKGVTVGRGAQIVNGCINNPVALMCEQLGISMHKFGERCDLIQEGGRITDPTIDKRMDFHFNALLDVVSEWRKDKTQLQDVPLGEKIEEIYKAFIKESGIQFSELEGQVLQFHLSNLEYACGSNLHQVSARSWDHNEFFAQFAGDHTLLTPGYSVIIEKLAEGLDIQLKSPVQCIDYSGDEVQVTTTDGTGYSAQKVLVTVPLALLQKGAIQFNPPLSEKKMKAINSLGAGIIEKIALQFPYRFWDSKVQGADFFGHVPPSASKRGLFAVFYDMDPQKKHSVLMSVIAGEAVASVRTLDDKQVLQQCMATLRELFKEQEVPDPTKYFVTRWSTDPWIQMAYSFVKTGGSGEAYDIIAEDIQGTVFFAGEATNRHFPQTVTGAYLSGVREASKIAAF

[4] = 10 μM IBS008738 combined with 4 μM CHIR99021 and 1 mM VPA in growth factors versus EFI-C or EFI-CV controls
[5] = Table 1, TAZ activators, concentration range in the assay
[6] = TAZ activator alone, FIG. 3A, 3B
[7] = 0-30 μM FHZ-000706 in a background of growth factors
[8] = 10 μM FHZ-000706 + 4 μM CHIR99021 in growth factors compared to CHIR alone

Chain of TAZ (Q9GZV5 whole entry): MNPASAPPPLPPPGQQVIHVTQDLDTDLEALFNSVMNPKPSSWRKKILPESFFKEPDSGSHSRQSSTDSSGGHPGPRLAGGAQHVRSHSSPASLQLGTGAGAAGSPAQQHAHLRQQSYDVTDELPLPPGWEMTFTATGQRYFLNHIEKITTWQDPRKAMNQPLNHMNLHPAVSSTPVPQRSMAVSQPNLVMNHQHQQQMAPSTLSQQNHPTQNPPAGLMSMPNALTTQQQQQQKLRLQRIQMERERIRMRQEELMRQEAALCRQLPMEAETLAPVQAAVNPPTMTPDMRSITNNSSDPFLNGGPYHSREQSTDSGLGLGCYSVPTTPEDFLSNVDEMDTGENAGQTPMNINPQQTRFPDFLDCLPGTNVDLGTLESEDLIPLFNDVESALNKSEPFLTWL
Chain of GSK-3 alpha (P49840 whole entry): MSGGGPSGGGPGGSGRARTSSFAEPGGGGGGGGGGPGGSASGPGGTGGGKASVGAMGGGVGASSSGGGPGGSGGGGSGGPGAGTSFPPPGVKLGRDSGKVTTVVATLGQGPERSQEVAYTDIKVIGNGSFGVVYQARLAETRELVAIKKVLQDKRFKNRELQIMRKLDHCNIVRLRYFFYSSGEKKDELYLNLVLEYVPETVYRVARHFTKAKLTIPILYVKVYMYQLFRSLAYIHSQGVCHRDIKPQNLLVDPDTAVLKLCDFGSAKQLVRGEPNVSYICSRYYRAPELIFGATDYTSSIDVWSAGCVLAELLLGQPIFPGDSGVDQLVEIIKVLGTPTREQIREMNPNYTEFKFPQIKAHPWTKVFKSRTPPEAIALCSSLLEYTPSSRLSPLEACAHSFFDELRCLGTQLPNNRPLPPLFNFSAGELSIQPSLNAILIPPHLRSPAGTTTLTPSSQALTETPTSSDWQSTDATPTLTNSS
Chain of DOT1L (Q8TEK3 whole entry, species assumed): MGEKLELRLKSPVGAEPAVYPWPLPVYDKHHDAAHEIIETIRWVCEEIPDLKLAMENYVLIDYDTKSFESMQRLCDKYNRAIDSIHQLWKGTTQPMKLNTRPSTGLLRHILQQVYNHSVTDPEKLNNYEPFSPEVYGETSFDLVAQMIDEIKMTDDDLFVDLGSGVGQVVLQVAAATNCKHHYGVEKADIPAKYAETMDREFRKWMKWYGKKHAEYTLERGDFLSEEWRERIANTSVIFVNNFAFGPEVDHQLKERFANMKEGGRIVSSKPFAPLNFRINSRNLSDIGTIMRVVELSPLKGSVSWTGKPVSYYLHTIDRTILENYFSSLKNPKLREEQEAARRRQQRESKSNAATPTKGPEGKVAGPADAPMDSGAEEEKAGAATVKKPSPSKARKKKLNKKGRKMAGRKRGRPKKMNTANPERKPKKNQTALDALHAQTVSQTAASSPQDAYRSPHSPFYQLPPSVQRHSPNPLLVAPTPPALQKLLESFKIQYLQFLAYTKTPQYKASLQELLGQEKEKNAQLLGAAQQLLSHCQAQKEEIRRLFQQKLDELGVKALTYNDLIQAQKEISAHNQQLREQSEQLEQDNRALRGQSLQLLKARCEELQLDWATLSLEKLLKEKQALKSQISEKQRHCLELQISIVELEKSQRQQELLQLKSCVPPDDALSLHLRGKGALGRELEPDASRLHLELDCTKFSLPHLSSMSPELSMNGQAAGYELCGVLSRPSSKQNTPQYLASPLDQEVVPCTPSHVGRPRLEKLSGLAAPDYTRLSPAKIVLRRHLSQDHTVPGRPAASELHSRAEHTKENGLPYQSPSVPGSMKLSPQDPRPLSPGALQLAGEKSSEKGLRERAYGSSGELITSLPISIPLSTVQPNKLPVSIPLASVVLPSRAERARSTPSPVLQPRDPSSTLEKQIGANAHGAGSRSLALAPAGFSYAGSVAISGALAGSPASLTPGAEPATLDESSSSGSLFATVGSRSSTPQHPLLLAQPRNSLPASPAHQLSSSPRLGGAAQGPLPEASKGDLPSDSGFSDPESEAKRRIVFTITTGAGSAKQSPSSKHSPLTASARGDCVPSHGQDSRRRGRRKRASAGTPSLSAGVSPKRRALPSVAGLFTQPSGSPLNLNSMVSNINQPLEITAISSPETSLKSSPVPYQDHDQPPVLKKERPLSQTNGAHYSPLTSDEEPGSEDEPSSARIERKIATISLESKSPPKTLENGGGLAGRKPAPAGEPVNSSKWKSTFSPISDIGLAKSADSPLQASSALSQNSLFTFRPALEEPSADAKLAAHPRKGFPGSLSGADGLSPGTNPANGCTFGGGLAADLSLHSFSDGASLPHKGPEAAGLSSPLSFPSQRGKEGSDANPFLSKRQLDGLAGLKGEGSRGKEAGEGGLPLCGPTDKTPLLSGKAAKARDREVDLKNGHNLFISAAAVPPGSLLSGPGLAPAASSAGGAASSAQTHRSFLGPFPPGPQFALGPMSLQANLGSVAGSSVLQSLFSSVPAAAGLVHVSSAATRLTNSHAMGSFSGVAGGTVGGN

SMILES: N[C@@H]1C[C@H]1c1ccccc1 [TCP]
- Cmax ([1]; Table 9, in brackets under the ng/mL range, read-out: Human Plasma Conc.: Cmax): 225 to 1500 nM
- Human Plasma Conc.: Cmax ([1]; Table 9): 30-200 ng/ml ng/mL

SMILES: c1ccc([C@@H]2C[C@H]2NC2CCNCC2)cc1 [GSK-LSD1]
- Lgr5+ Assay ([2]; Table 9, with <= the upper end of a range printed over two lines): ≤ 50 µM

SMILES: C=CCNc1nc(N)c(C(=O)c2ccc(Cl)s2)s1 [IBS008738, reference compound]
- enrichment of Lgr5+ progenitor cells [3]: enriched
- proliferation of Lgr5+ progenitor cells [3]: proliferate
- Lgr5 GFP(+) cell count (progenitor cell proliferation), FIG. 1A ([2]; 10 μM IBS008738 + 4 μM CHIR99021 in growth factors (50 ng/mL EGF, bFGF, IGR1) versus EFI-C or EFI-CV controls): enhances
- Lgr5 GFP(+) cell proliferation percentage (enrichment), FIG. 1B ([2]; 10 μM IBS008738 + 4 μM CHIR99021 in growth factors versus EFI-C or EFI-CV controls): enhances
- Lgr5 GFP(+) cell count (progenitor cell proliferation), FIG. 2A [2, 4]: does not enhance
- Lgr5 GFP(+) cell proliferation percentage (enrichment), FIG. 2B [2, 4]: enhances
- Lgr5+ Assay [2, 5]: 1.1 to 30 µM

SMILES: CC(C)N(CCCNC(=O)Nc1ccc(C(C)(C)C)cc1)C[C@H]1O[C@@H](n2cc(Br)c3c(N)ncnc32)[C@H](O)[C@@H]1O [SGC0946]
- Lit Cell (DOT1L): 10 mM
- Lgr5+ Assay ([2]; concentration range, Table 8): 0.6 to 5 µM
- Human In Vivo Conc [1]: 0.1-5 μM uM

SMILES: Cc1ccc(-n2cnc(N)c2C(=O)c2ccccc2)cc1 [FHZ-000706]
- enrichment of Lgr5+ progenitor cells [3]: enriched
- proliferation of Lgr5+ progenitor cells [3]: proliferate
- enrichment of cochlear progenitor cells [3, 6]: does not promote
- proliferation of cochlear progenitor cells [3, 6]: does not promote
- Lgr5 GFP(+) cell area (enrichment), FIG. 3B [2, 7]: does not enrich
- Lgr5 GFP(+) cell area (proliferation), FIG. 3A [2, 7]: does not proliferate
- Lgr5 GFP(+) cell area (proliferation), FIG. 4A [2, 8]: enhances
- Lgr5 GFP(+) cell area percentage (enrichment), FIG. 4B [2, 8]: enhances
- Lgr5+ Assay [2, 5]: 1 to 100 µM

SMILES: CS(=O)(=O)c1ccc(-c2cnc(NCc3ccco3)n3cnnc23)cc1 [EED226, reference compound]
- Lgr5+ Assay ([2]; Table 7, result in words): Active

SMILES: O=C([O-])CCCc1ccccc1.[Na+] [Na phenylbutyrate]
- Class selectivity (HDAC; Table 5, HDAC class): Class I >
- IC50 (HDAC; Table 5, HDAC Inhib 1, 2, 3, 8, kind of potency not given, read-out: HDAC Potene): 9 to 16 µM

SMILES: CCCCc1nc2cc(-c3cccnc3)c(C)nc2n1Cc1ccc(-c2ccccc2-c2nn[nH]n2)cc1 [TM-25659]
- Lit Cell (TAZ): 10 to 100 µM

SMILES: O=C1NC(=O)C(c2cnc3ccccn23)=C1c1cn2c3c(cc(F)cc13)CN(C(=O)N1CCCCC1)CC2 [LY2090314, 3-(9-fluoro-2-(piperidine-1-carbonyl)-1,2,3,4-tetrahydro-[1,4]diazepino[6,7,1-hi]indol-7-yl)-4-(imidazo[1,2-a]pyridin-3-yl)-1H-pyrrole-2,5-dione]
- IC50 (GSK-3 alpha): 0.0021 µM

SMILES: N#Cc1ccc2[nH]c(O)c(-c3ccc(CN4CCOCC4)cn3)c2c1 [AZD 1080]
- IC50 (GSK-3 alpha): 0.0069 µM

SMILES: O=C(O)c1ccc(CN2CCC(CN[C@@H]3C[C@H]3c3ccccc3)CC2)cc1 [GSK-2879552]
- IC50 (KDM1b): 20 µM

SMILES: CCCc1cc(C)[nH]c(=O)c1CNC(=O)c1cc(-c2ccc(N3CCN(C(C)C)CC3)nc2)cc2c1cnn2C(C)C [UN C1999, reference compound]
- Lgr5+ Assay ([2]; Table 7, result in words): Active

SMILES: C=CCNc1nc(N)c(C(=O)c2ccc(F)s2)s1 [TT10]
- Lit Cell (TAZ): 1 µM

SMILES: CC(C)N(CCCNC(=O)Nc1ccc(C(C)(C)C)cc1)C[C@H]1O[C@@H](n2ccc3c(N)ncnc32)[C@H](O)[C@@H]1O [EPZ004777]
- Human In Vivo Conc [1]: 0.1 to 45 µM

SMILES: CC(C)N(C[C@H]1O[C@@H](n2cnc3c(N)ncnc32)[C@H](O)[C@@H]1O)[C@H]1C[C@@H](CCc2nc3cc(C(C)(C)C)ccc3[nH]2)C1 [pinometostat]
- Human In Vivo Conc: Total plasma Css ([1]; Table 8, in brackets under the ng/mL range): (1.42-2.94 uM)
- Human In Vivo Conc [1]: (1-10 uM)
